The supplement of paper PMC8633005

How the values were obtained:
Assay in all cases: drug sensitivity score (DSS) (DSS (unitless, 0-50 scale)); higher = more sensitive (stronger viability inhibition); extreme values may be limits of the assay
Settings in all cases: 72 h; culture: 2D
SK-MEL-28 = test system: SK-MEL-28
Procedure, shortened: (§1)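 A 527-compound oncology library was screened in 384-well plates against melanoma cell lines and patient-derived melanoma cultures grown in 2D, the cultures at 1000–1500 cells per well. Each compound, in DMSO or water, was applied at five concentrations over a 10,000-fold range and incubated for 72 h at 37 °C before CellTiter-Glo luminescence readout of viability. A drug sensitivity score, a modified area-under-curve measure, was calculated from curves fitted in the in-house Breeze software.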

FM-MEL-2 = test system: FM-MEL-2
Procedure, shortened: as §1

WM165 = test system: WM165
Procedure, shortened: as §1

WM852 = test system: WM852
Procedure, shortened: as §1

SK-MEL-2 = test system: SK-MEL-2
Procedure, shortened: as §1

FM-MEL-6 = test system: FM-MEL-6
Procedure, shortened: as §1

Bowes = test system: Bowes
Procedure, shortened: as §1

FM-MEL-3 = test system: FM-MEL-3
Procedure, shortened: as §1

SMILES | drug sensitivity score (SK-MEL-28) | drug sensitivity score (FM-MEL-2) | drug sensitivity score (WM165) | drug sensitivity score (WM852) | drug sensitivity score (SK-MEL-2) | drug sensitivity score (FM-MEL-6) | drug sensitivity score (Bowes) | drug sensitivity score (FM-MEL-3)
CN(C)C/C=C/C(=O)Nc1cc2c(Nc3ccc(F)c(Cl)c3)ncnc2cc1O[C@H]1CCOC1 [Afatinib] | 0 | 0 | 0 | 0 | 0 | 0.3 | 2.2 | 0.5
CN(CC(=O)N(Cc1ccc(C2CCCCC2)cc1)c1ccc(C(=O)O)cc1)S(=O)(=O)c1c(F)c(F)c(F)c(F)c1F [SH-4-54] | 5.4 | 5.2 | 16.1 | 6.4 | 5.1 | 5.8 | 7.1 | 8.2
CCOc1ccn(-c2ccc(F)cc2)c(=O)c1C(=O)Nc1ccc(Oc2ccnc(N)c2Cl)c(F)c1 | 0 | 0 | 0 | 0 | 0 | 0 | 0 | 0
CC1CCC(n2c3cnccc3c3cnc(Nc4ccc5c(n4)CCN(C(=O)CO)C5)nc32)CC1 (stereo not given) [AMG-925] | 0 | 0.7 | 0 | 1.8 | 0 | 0.7 | 0 | 0
Cc1ccc(=O)n(-c2ccccc2)c1 [Pirfenidone] | 0 | 0 | 0 | 0 | 0 | 0 | 0 | 0
CC[C@H](NC(=O)[C@H](C)NC)C(=O)N1C[C@@H](O)C[C@H]1Cc1c(-c2[nH]c3cc(F)ccc3c2C[C@@H]2C[C@H](O)CN2C(=O)[C@H](CC)NC(=O)[C@H](C)NC)[nH]c2cc(F)ccc12 [Birinapant] | 0 | 8 | 0 | 0 | 3.9 | 3 | 0 | 1.4
FC(F)(F)c1ccc(CNc2ccc(Cc3c[nH]c4ncc(Cl)cc34)cn2)cn1 [Pexidartinib] | 0.4 | 1 | 2.4 | 4.5 | 0 | 1.1 | 0.2 | 3
COc1ccc(C[C@H](NC(=O)[C@H](C)NC(=O)CN2CCOCC2)C(=O)N[C@@H](Cc2ccccc2)C(=O)C2(C)CO2)cc1 (stereo in doubt) [ONX-0914] | 19.4 | 13.5 | 18.8 | 16.6 | 15.6 | 18.7 | 21.2 | 19.2
COc1cc(Nc2ncc(F)c(Nc3ccc4c(n3)NC(=O)C(C)(C)O4)n2)cc(OC)c1OC [Tamatinib] | 0 | 5.5 | 0.9 | 0 | 0 | 0 | 1.3 | 2.7
Cc1cc(OCc2nnc(SC3CCCC3)n2-c2cccnc2)ccc1-c1ccc(S(C)(=O)=O)cc1 [NMS-873] | 6.8 | 4.1 | 9.4 | 16.9 | 4.4 | 5 | 11.1 | 11.4
Cc1ccc(NS(=O)(=O)c2cccc(C#N)c2)c2[nH]cc(C#N)c12 [E7820] | 0 | 1.9 | 5.3 | 0 | 0 | 0.7 | 0 | 5.5
CC(C)Oc1ccc(C(=O)N[C@H](CNC(=O)CN(C)C)Cc2ccc(-c3cn4cccc([C@H](C)O)c4n3)cc2)cc1Cl | 5.3 | 7.3 | 13.7 | 9.5 | 13.5 | 4.7 | 19.2 | 6.3
COc1ccc2[nH]cc(/C=C3\C(=O)Nc4ccc(NC(=O)CCN5CCCCC5)cc43)c2c1 | 8.6 | 12.6 | 8.8 | 11.1 | 4.6 | 5 | 5.9 | 5.6
CCN(CC)CCCC(C)Nc1c2ccc(Cl)cc2nc2ccc(OC)cc12 (stereo not given) [Mepacrine] | 10.3 | 15.1 | 17.1 | 17 | 13.6 | 14.2 | 19.6 | 9.9
CS(=O)(=O)c1ccc(C(=O)Nc2ccc(Cl)c(-c3ccccn3)c2)c(Cl)c1 [Vismodegib] | 0 | 0 | 0 | 0 | 0 | 0 | 0 | 0
COc1ccc(-c2ccc3ncc4c(c3c2)n(-c2ccc(N3CCNCC3)c(C(F)(F)F)c2)c(=O)n4C)cn1 [NVP-BGT226] | 11.5 | 11.7 | 18.3 | 11.9 | 13.6 | 12 | 19 | 13.1
NC(=O)/C(=C/n1cnc(-c2cc(C(F)(F)F)cc(C(F)(F)F)c2)n1)c1cncnc1 [Eltanexor] | 14 | 9.5 | 19.3 | 11.2 | 15.2 | 11.8 | 14.8 | 18.4
CCOCc1nc2c(N)nc3ccccc3c2n1CC(C)(C)O [Resiquimod] | 0 | 0 | 0 | 0.4 | 0 | 0.2 | 0.1 | 0
N#CC(c1ccnc(OCc2ccc(CN3CCOCC3)cc2)n1)c1nc2ccccc2s1 (stereo not given) [Bentamapimod] | 0.8 | 3.9 | 1.1 | 0.1 | 0 | 2.8 | 1.4 | 5.9
CC(C)C[C@H](NC(=O)[C@@H](COC(C)(C)C)NC(=O)[C@H](Cc1ccc(O)cc1)NC(=O)[C@H](CO)NC(=O)[C@H](Cc1c[nH]c2ccccc12)NC(=O)[C@H](Cc1cnc[nH]1)NC(=O)[C@@H]1CCC(=O)N1)C(=O)N[C@@H](CCCNC(=N)N)C(=O)N1CCC[C@H]1C(=O)NNC(N)=O [Goserelin] | 0 | 0 | 0 | 0 | 0 | 0 | 0 | 0
